Each structure is given as a SMILES string. The source made the active and inactive calls. The rule behind the calls is not given here. Some results are limits rather than exact numbers.

From PubChem BioAssay AID1159563 (GlaxoSmithKline (GSK), 2015) come the findings set out here.

For this assay, the system named is HepG2 cytotoxicity. Kind of assay: human hepatoma cell viability loss – cytotoxicity control (AID 1159563).
Broadly, the IC50 is the point on the concentration scale where inhibition reaches its midpoint. Turning to `COc1cccc(CCNC(=O)C(c2cn[nH]c2)N2CCN(c3ccc(Cl)cc3)CC2)c1` (configuration not stated), the IC50 was 50 µM.

`N#Cc1cccc(CNc2ccc(-c3cnn(CC4CC4)c(=O)c3C#N)cc2)c1`: the IC50 was > 100 µM (inactive).

`Cc1sc(C)c(C(F)(F)F)c1CNCCCNc1cc(=O)c2ccccc2[nH]1`: the IC50 is 50 µM.

`Cc1ccc(Nc2nc(-c3ccccn3)cc(N3CCCC(O)C3)n2)cc1` (configuration not stated): the IC50 was 40 µM.

Turning to `Cc1ccc(Nc2nc(C3CCCN3Cc3ccn[nH]3)cs2)nc1` (configuration not stated), the IC50 is 32 µM.

`Cc1ccc(S(=O)(=O)Nc2ccc(CN3CCN(C(=O)c4cccc(C#N)c4)CC3)cc2)cc1`: the IC50 is > 100 µM (inactive).

Regarding `CC1CN(Cc2ccc(C#N)cc2)CCN1c1ccc(NC(=O)c2ccccc2F)cc1` (configuration not stated), the IC50 is > 100 µM (inactive).

Turning to `CCCNC(=O)Nc1cccc(-c2nc3ncccc3o2)c1`, the IC50 was > 100 µM (inactive).

Regarding `COc1ccc2ncc(Cl)c(CCN3CC[C@H](NCc4cc5c(cn4)OCS5)[C@@H](O)C3)c2n1`, the IC50 is 25 µM.

For the molecule `CN1CCCN(C(=O)c2ccc(N3CCCC3)cc2Cl)CC1`, the IC50 was > 100 µM (inactive).

On to `COc1ccc(S(=O)(=O)Nc2ccc(CN3CCN(C(=O)c4cccc(C#N)c4)CC3)cc2)cc1`, for which the IC50 was > 100 µM (inactive).

Regarding `O=C(CN(Cc1ccccn1)Cc1ccccn1)NC1Cc2ccccc2C1`, the IC50 was > 160 µM (inactive).

As to `O=C1NCc2cccc(Nc3nc(NC4CCC(O)CC4)ncc3Br)c21` (configuration not stated), the IC50 was > 100 µM (inactive).

`O=C(NCc1nnc2n1CCCCC2)c1csc(-c2ccccc2)n1`: the IC50 was > 100 µM (inactive).

For the molecule `CC(=O)Nc1nc(-c2cc(C)ccc2C)c(C)s1`, the IC50 was > 100 µM (inactive).

For `NC(=O)c1ccc(-c2cccc(OCCN3CCN(C4CCCCC4)CC3)c2)cc1`, the IC50 was 50 µM.

Turning to `c1ccc(CNc2cccc3ccncc23)cc1`, the IC50 is > 100 µM (inactive).

For `COc1ncc(-c2ccc3nccc(-c4ccncc4)c3c2)cc1NS(=O)(=O)C1CC1`, the IC50 was > 100 µM (inactive).

In the case of `COc1ccc(Nc2nccc(N(C)c3n[nH]c4c(F)cccc34)n2)cc1S(C)(=O)=O`, the IC50 is 20 µM.

`CNc1nc(C)nc(N2CCc3cc(C(=O)NCc4ccc(-c5ccn[nH]5)cc4Cl)ccc32)n1`: the IC50 is > 100 µM (inactive).

`CCC(CC)C(=O)Nc1cccc(C(=O)Nc2nnc(C3CCCCC3)s2)c1`: the IC50 is > 100 µM (inactive).

As to `CC(=Cc1ccccc1)CN1CCC(=O)N(Cc2cccnc2)CC1`, the IC50 is > 100 µM (inactive).

`COCCn1c(-c2ccccc2)cnc1NCc1ccccc1OC`: the IC50 was 20 µM.

In the case of `O=C(CSc1nnc(-c2ccc3c(c2)OCO3)o1)N(Cc1ccco1)CC(F)(F)F`, the IC50 was > 100 µM (inactive).

Regarding `Cc1c(CNC(=O)c2ccc(Cn3cc(Cl)c([N+](=O)[O-])n3)cc2)cnn1C`, the IC50 was > 100 µM (inactive).

Consider `NS(=O)(=O)c1ccc(Nc2ncc3cccc(OC4CCNCC4)c3n2)cc1`, for which the IC50 is > 100 µM (inactive).

`COc1cccc(S(=O)(=O)Nc2ccc3c(c2)CC(N2CCC(NC(=O)C4CC4)CC2)C3)c1` (configuration not stated): the IC50 is > 100 µM (inactive).

In the case of `O=C(NCC1CCCCN1C(=O)c1cccc2ccccc12)c1ccccc1` (configuration not stated), the IC50 was > 100 µM (inactive).

Turning to `O=C(NCCc1ccccc1Cl)c1cccn1-c1cccnc1`, the IC50 is > 100 µM (inactive).

Regarding `CN1CCC(N(C)c2nccc(N3CCN(C(=O)c4cccc(-c5cccnc5)c4)CC3)n2)CC1`, the IC50 is 40 µM.

Regarding `c1cncc(CN(Cc2ccco2)Cc2cn[nH]c2-c2cccs2)c1`, the IC50 is > 100 µM (inactive).

As to `CC1(C)CCC(=Cc2ccc(Cl)cc2)CC1(O)Cn1ccnc1` (configuration not stated), the IC50 is 50 µM.

For the molecule `COc1ccc2ncc(F)c(CCN3CC[C@@H](NC(=O)c4cc5c(s4)CCC5)[C@@H](O)C3)c2n1`, the IC50 is 50 µM.

`CCCCn1c(=O)c2c(N)onc2n(CCCC)c1=O`: the IC50 is 50 µM.

Take `CC(=O)Nc1ccc(CN2CCC(N3CC(c4ccccc4)(c4ccccc4)OCC3=O)CC2)cc1`: the IC50 was 79 µM.

With `CN(C)CCOc1ccc(N2CCN(S(=O)(=O)c3ccc(Cl)cc3)CC2)cc1`, the IC50 is 50 µM.

For the molecule `CS(=O)(=O)c1cccc(-c2cnc(N)c3c(-c4ccc(CO)cc4)csc23)c1`, the IC50 was > 100 µM (inactive).

Turning to `CN(Cc1nc2c(C(=O)N3CCN(Cc4ccccc4)CC3)cccc2[nH]1)C1CCCc2cccnc21` (configuration not stated), the IC50 was 13 µM.

Turning to `COc1ccc(C(C)(C)C)cc1S(=O)(=O)n1ccnc1`, the IC50 was > 100 µM (inactive).

For `NC(=O)c1cc(F)ccc1Nc1nc(NC2CCC(O)CC2)ncc1Cl` (configuration not stated), the IC50 is > 100 µM (inactive).

On to `N#Cc1cc([N+](=O)[O-])ccc1NC1CCCCCC1`, for which the IC50 is > 100 µM (inactive).

For `COc1ccc(-c2csc(NC(=O)c3ccc([N+](=O)[O-])s3)n2)cc1OC`, the IC50 is 10 µM.

Take `O=C(NCCCn1cnc2ccccc21)c1ccc(NC(=O)c2ccco2)cc1`: the IC50 is 16 µM.

Regarding `O=C(Nc1nc(-c2ccccn2)cs1)N1C[C@H]2C[C@@]2(c2ccccc2)C1`, the IC50 is 25 µM.

As to `COc1ccc([N+](=O)[O-])cc1NC(=O)c1cc(Cl)ccc1O`, the IC50 is 10 µM.

Take `Cc1[nH]n2c(=O)c3c(nc2c1-c1ccc(F)cc1)CCCC3`: the IC50 was > 100 µM (inactive).

Regarding `COc1ccc(C2CC(c3ccccc3Cl)=NN2C(=O)CNC(=O)C2CCC2)cc1` (configuration not stated), the IC50 was > 100 µM (inactive).

`CN(C)CCN(C)Cc1ccc(F)cc1NS(=O)(=O)c1ccc(Cl)c(Cl)c1`: the IC50 was 40 µM.

`Cc1nc(-c2ccc3c(c2)OCO3)sc1C(=O)NCc1ccc2c(c1)OCO2`: the IC50 was > 100 µM (inactive).

With `COc1ccc(C(=O)Nc2cc(C(F)(F)F)ccc2N2CCOCC2)c(OC)c1`, the IC50 is > 100 µM (inactive).

In the case of `CN1C(=O)c2ccccc2Sc2ccc(NC(=O)NCc3ccco3)cc21`, the IC50 was > 100 µM (inactive).

Regarding `COc1ccc2ncc(=O)n(CCN3CCC(NCc4ccc(-c5cccs5)cc4)CC3)c2n1`, the IC50 is 13 µM.

As to `O=C1CN(Cc2ccco2)C2CS(=O)(=O)CC2N1c1ccc(Cl)cc1` (configuration not stated), the IC50 is > 100 µM (inactive).

As for `Cc1ccc(NC(C)C(=O)Nc2ccc(C#N)cc2)cc1S(=O)(=O)N1CCCCC1` (configuration not stated), the IC50 was 79 µM.

On to `Cc1[nH]nc(C(F)(F)F)c1NC(=O)CCn1cc(Cl)c([N+](=O)[O-])n1`, for which the IC50 was > 100 µM (inactive).

For `CC(=O)Nc1ccc(-c2noc(CC3CCCN(Cc4cccc(F)c4C)C3)n2)cc1` (configuration not stated), the IC50 is > 100 µM (inactive).

With `C[C@@H](Oc1cc(-n2cnc3ccc(C(O)CO)cc32)sc1C(N)=O)c1ccccc1C(F)(F)F` (some centres not stated), the IC50 is > 10 µM (inactive).

With `COc1ccc(Oc2ccc(C(C)N(C)c3ncc4c(N)nc(N)nc4n3)cc2)cc1` (configuration not stated), the IC50 is 40 µM.

For the molecule `CS(=O)(=O)N1CCC(Nc2ncc(Br)c(Nc3cccc(F)c3C(N)=O)n2)CC1`, the IC50 is > 100 µM (inactive).

For `COc1ccc(C2CC(c3ccccc3Cl)=NN2C(=O)CNC(=O)C2CCCC2)cc1` (configuration not stated), the IC50 was > 100 µM (inactive).

For `Cc1ccc(S(=O)(=O)Cn2nnnc2C(c2cccnc2)N2CCN(c3ccccc3)CC2)cc1` (configuration not stated), the IC50 was > 100 µM (inactive).

On to `O=C(c1ccc(OCCCc2cnc[nH]2)cc1)C1CC1`, for which the IC50 was > 100 µM (inactive).
